Data set [1] deals with T1, Human Histamine H3 Receptor (Homo sapiens, UniProt Q9Y5N1).
T1 construct: expressed in transfected cells; host or cells: HEK293T (stably transfected; membrane preparation)
The experiment in a line: Methyl histamine binding in Human Histamine H3 Receptor Cell Line. The settings on record: read-out: hH3 Binding Ki. As for the experimental part:
Evaluation of Methyl histamine binding in Human Histamine H3 Receptor Cell Line
The affinity of test compounds for the histamine 3 (H3) receptor is evaluated in the following manner. […] Cells are scraped from the plate, transferred to centrifuge tubes, washed one time in PBS by centrifugation in a Sorvall RT7 Plus centrifuge (2000 rpm 10 minutes, 4° C.). The resulting pellets are stored at −80° C. until ready for use. Cells are re-suspended in buffer (50 mM Tris pH=7.5) and placed in a Dounce homogenizer, douncing ten times to homogenize cells. The homogenate is spun down by centrifugation (Sorvall RT7 Plus, 1800 rpm 10 minutes, 4° C.). The supernatant is placed in a Corex tube and spun down by centrifugation (Sorvall RC 5c Plus, 17,000 rpm 20 minutes, 4° C.). The pellet is resuspended in buffer (50 mM Tris, pH 7.5). Protein concentration (ug/ul) is determined using the Micro-BCA Protein Determination. The binding assay is set up in a 96 well microtiter plate in a total volume of 250 uL. Non-specific binding is determined in the presence of 10 uM clobenpropit. The final radioligand concentration is 1 nM. The test compound is serially diluted using the Beckman Biomek2000 to a final approximate range of 100 uM to 100 pM. Membranes are suspended in buffer, homogenized in 2 bursts of ten seconds using a Vitris mechanical homogenizer set at power setting 5. Ten μg of membranes are added to each well. Following a one hour incubation at 30° C., the reaction is terminated by the addition of ice cold buffer and rapid filtration with a Packard Filtermate Harvester through a GF/B filter pre-soaked with 1% PEI for one hour. The plate is dried for one hour at 37° C. and 60 μL Microscint Scintillant is added to each well. The CPM per well is measured on a Packard Top Count NXT. Ki values are determined in nM. […] CPM values are expressed as % specific binding and plotted vs compound concentration. A curve is fitted using a four-parameter logistic fit and the IC50 value is determined. The Ki is calculated from this using the Cheng-Prusoff equation: […]=IC50/1+(L/Kd) where L=concentration of free radioligand used in the assay, and Kd is the dissociation constant of the radioligand for the receptor. L is determined for each experiment by counting an aliquot of the diluted radioligand (corresponding to that added to each well) and the Kd has previously been determined under identical conditions for this cell line/radioligand.

The structures appear in SMILES notation. Counter-ions that a name gives are not always drawn.

This is an account of results in patent US20080293771A1, “AZACYCLYLBENZAMIDE DERIVATIVES AS HISTAMINE-3 ANTAGONISTS” (Wyeth, priority 2007, published 2008).

T1 sequence (Q9Y5N1 whole entry): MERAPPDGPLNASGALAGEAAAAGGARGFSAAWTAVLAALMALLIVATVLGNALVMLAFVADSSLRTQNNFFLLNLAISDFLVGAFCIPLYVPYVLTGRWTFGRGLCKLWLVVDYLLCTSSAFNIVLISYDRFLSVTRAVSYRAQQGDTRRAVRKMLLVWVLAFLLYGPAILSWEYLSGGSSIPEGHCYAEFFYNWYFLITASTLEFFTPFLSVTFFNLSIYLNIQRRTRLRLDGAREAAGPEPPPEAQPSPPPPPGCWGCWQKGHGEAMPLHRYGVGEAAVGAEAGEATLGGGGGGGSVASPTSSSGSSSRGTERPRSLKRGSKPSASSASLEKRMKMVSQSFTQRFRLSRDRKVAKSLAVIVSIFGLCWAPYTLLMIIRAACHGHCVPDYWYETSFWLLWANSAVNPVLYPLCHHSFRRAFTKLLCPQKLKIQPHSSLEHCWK

`Cc1nc2ccccc2n1Cc1ccc(C(=O)N(C)C2CCNCC2)cc1` [Example 44, N-methyl-4-((2-methyl-1H-benzo[d]imidazol-1-yl)methyl)-N-(piperidin-4-yl)benzamide]: the melting point fell in the range of 196 to 198 °C. Further, the Ki in data set [1] is above 100 nM.
For the compound `CN(C(=O)c1ccc(-n2cc3ccccc3n2)cc1)[C@@H]1CCN(C2CCCC2)C1` [Example 63, N-[(3R)-1-cyclopentylpyrrolidin-3-yl]-4-(2H-indazol-2-yl)-N-methylbenzamide], in data set [1], the Ki is at most 10 nM.
Turning to `CC(C)N1CC[C@@H](N(C)C(=O)c2ccc(Cn3ncc4ccccc43)cc2)C1` [Example 76, 4-(1H-indazol-1-ylmethyl)-N-[(3R)-1-isopropylpyrrolidin-3-yl]-N-methylbenzamide], in data set [1], the Ki is 50.1 to 100 nM.
For the compound `CN(C(=O)c1ccc(Cn2cccn2)cc1)C1CCN(C2CCCC2)CC1` [Example 93, N-(1-cyclopentylpiperidin-4-yl)-N-methyl-4-(1H-pyrazol-1-ylmethyl)benzamide], in data set [1], the Ki is above 100 nM.
Consider `Cc1nc2ccccc2n1Cc1ccc(C(=O)N(C)C2CCN(C3CCCC3)CC2)cc1` [Example 48, N-(1-cyclopentylpiperidin-4-yl)-N-methyl-4-[(2-methyl-1H-benzimidazol-1-yl)methyl]benzamide], for which the inhibition constant Ki in data set [1] was above 100 nM.
In the case of `CN(C(=O)c1ccc(Cn2cnc3ccccc32)cc1)C1CCNCC1` [Example 45, 4-((1H-benzo[d]imidazol-1-yl)methyl)-n-methyl-N-(piperidin-4-yl)benzamide], the melting point lay within 199 to 201 °C. In addition, the Ki in data set [1] is above 100 nM.
Take `CN(C(=O)c1ccc(Cn2cccn2)cc1)C1CCN(C2CCC2)CC1` [Example 92, N-(1-cyclobutylpiperidin-4-yl)-N-methyl-4-(1H-pyrazol-1-ylmethyl)benzamide]: the Ki in data set [1] is above 100 nM.
For `CN(C(=O)c1ccc(Cn2ncc3ccccc32)cc1)[C@@H]1CCN(C2CCC2)C1` [Example 77, N-[(3R)-1-cyclobutylpyrrolidin-3-yl]-4-(1H-indazol-1-ylmethyl)-N-methylbenzamide], the Ki in data set [1] was 10.1 to 50 nM.
As for `CC(C)N1CC[C@@H](N(C)C(=O)c2ccc(-n3ncc4ccccc43)cc2)C1` [Example 64, 4-(1H-indazol-1-yl)-N-[(3R)-1-isopropylpyrrolidin-3-yl]-N-methylbenzamide], the Ki in data set [1] was at most 10 nM.
Still for that read-out and setting: the figure for `CN(C(=O)c1ccc(Cn2ncc3ccccc32)cc1)[C@@H]1CCN(C2CCCC2)C1` [Example 78, N-[(3R)-1-cyclopentylpyrrolidin-3-yl]-4-(1H-indazol-1-ylmethyl)-N-methylbenzamide] is 50.1 to 100 nM; for `Cc1nc2ccccc2n1-c1ccc(C(=O)N(C)[C@@H]2CCN(C3CCC3)C2)c(Cl)c1` [Example 106, 2-chloro-N-[(3R)-1-cyclobutylpyrrolidin-3-yl]-N-methyl-4-(2-methyl-1H-benzimidazol-1-yl)benzamide] it is 10.1 to 50 nM; for `CC(C)N1CCC(N(C)C(=O)c2ccc(-n3cc4ccccc4n3)cc2)CC1` [Example 69, 4-(2H-indazol-2-yl)-N-(1-isopropylpiperidin-4-yl)-N-methylbenzamide] it is 50.1 to 100 nM.
The same measure, in the same setting: the figure for `CN(C(=O)c1ccc(-n2cccn2)cc1)C1CCN(C2CCCC2)CC1` [Example 87, N-(1-cyclopentylpiperidin-4-yl)-N-methyl-4-(1H-pyrazol-1-yl)benzamide] is above 100 nM.
The same measure, in the same setting: the figure for `Cc1nc2ccccc2n1-c1ccc(C(=O)N(C)C2CCNCC2)cc1` [Example 30, N-Methyl-4-(2-methylbenzimidazol-1-yl)-N-piperidin-4-yl-benzamide Hydrochloride] is above 100 nM; for `CN(C(=O)c1ccc(Cn2cnc3ccccc32)cc1)[C@@H]1CCNC1` [Example 36, (R)-4-((1H-benzo[d]imidazol-1-yl)methyl)-N-methyl-N-(pyrrolidin-3-yl)benzamide Hydrochloride] it is above 100 nM.
With `Cc1nc2ccccc2n1-c1ccc(C(=O)N[C@@H]2CCN(C3CCCCC3)C2)cc1` [Example 137, N-[(3R)-1-cyclohexylpyrrolidin-3-yl]-4-(2-methyl-1H-benzimidazol-1-yl)benzamide], in data set [1], the Ki was above 100 nM.
As to `Cc1nc2ccccc2n1-c1ccc(C(=O)N(C)C2CCN(C(C)C)CC2)cc1F` [Example 119, 3-fluoro-N-methyl-4-(2-methyl-1H-benzimidazol-1-yl)-N-[1-(1-methylethyl)piperidin-4-yl]benzamide], in data set [1], the Ki was at most 10 nM.
Take `CN(C(=O)c1ccc(-n2ncc3ccccc32)cc1)C1CCNCC1` [Example 68]: in data set [1], the Ki was above 100 nM.
In the case of `CN(C(=O)c1ccc(-n2cc3ccccc3n2)cc1)C1CCN(C2CCCC2)CC1` [Example 71, N-(1-cyclopentylpiperidin-4-yl)-4-(2H-indazol-2-yl)-N-methylbenzamide], the Ki in data set [1] was above 100 nM.
Consider `CN(C(=O)c1ccc(-n2cccn2)cc1)C1CCN(C2CCC2)CC1` [Example 86, N-(1-cyclobutylpiperidin-4-yl)-N-methyl-4-(1H-pyrazol-1-yl)benzamide], for which, in data set [1], the Ki was above 100 nM.
On the same count and under the same terms, the figure for `Cc1nc2ccccc2n1Cc1ccc(C(=O)N(C)C2CCN(C(C)C)CC2)cc1` [Example 46, N-(1-isopropylpiperidin-4-yl)-N-methyl-4-[(2-methyl-1H-benzimidazol-1-yl)methyl]benzamide] is 50.1 to 100 nM.
For `CCN(C(=O)c1ccc(-n2c(C)nc3ccccc32)cc1)[C@@H]1CCN(C2CCCCC2)C1` [Example 142, N-[(3R)-1-cyclohexylpyrrolidin-3-yl]-N-ethyl-4-(2-methyl-1H-benzimidazol-1-yl)benzamide], in data set [1], the Ki is above 100 nM.
Consider `Cc1nc2cc(C#N)ccc2n1-c1ccc(C(=O)N(C)[C@@H]2CCNC2)cc1` [Example 53, (R)-4-(5-cyano-2-methyl-benzoimidazol-1-yl)-N-methyl-N-pyrrolidin-3-yl-benzamide], for which the melting point is 178 to 180 °C. The inhibition constant (Ki) in data set [1] is above 100 nM.
Take `Cc1nc2ccccc2n1Cc1ccc(C(=O)N(C)[C@@H]2CCN(C3CCCCC3)C2)cc1` [Example 40, N-[(3R)-1-cyclohexylpyrrolidin-3-yl]-N-methyl-4-[(2-methyl-1H-benzimidazol-1-yl)methyl]benzamide]: in data set [1], the Ki was 10.1 to 50 nM.
With `CC(C)N1CCC(N(C)C(=O)c2ccc(Cn3cnc4ccccc43)cc2)CC1` [Example 49, 4-(1H-benzimidazol-1-ylmethyl)-N-(1-isopropylpiperidin-4-yl)-N-methylbenzamide], the Ki in data set [1] fell in the range of 50.1 to 100 nM.
Take `Cc1nc2ccccc2n1-c1ccc(C(=O)N(C)C2CCN(C3CCCC3)CC2)cc1F` [Example 120, N-(1-cyclopentylpiperidin-4-yl)-3-fluoro-N-methyl-4-(2-methyl-1H-benzimidazol-1-yl)benzamide]: in data set [1], the Ki was 10.1 to 50 nM.
On to `Cc1nc2cc(C#N)ccc2n1-c1ccc(C(=O)N(C)[C@@H]2CCN(C3CCC3)C2)cc1` [Example 55, 4-(5-cyano-2-methyl-1H-benzimidazol-1-yl)-N-[(3R)-1-cyclobutylpyrrolidin-3-yl]-N-methylbenzamide], for which the inhibitory constant (Ki) in data set [1] was at most 10 nM.
With `CN(C(=O)c1ccc(-n2ncc3ccccc32)cc1)C1CCN(C2CCC2)CC1` [Example 73, N-(1-cyclobutylpiperidin-4-yl)-4-(1H-indazol-1-yl)-N-methylbenzamide], in data set [1], the Ki is above 100 nM.
Regarding `CN(C(=O)c1ccc(-n2ncc3ccccc32)cc1)C1CCN(C2CCCC2)CC1` [Example 74, N-(1-cyclopentylpiperidin-4-yl)-4-(1H-indazol-1-yl)-N-methylbenzamide], in data set [1], the Ki is above 100 nM.
For the compound `CN(C(=O)c1ccc(-n2ncc3ccccc32)cc1)[C@@H]1CCN(C2CCCC2)C1` [Example 66, N-[(3R)-1-cyclopentylpyrrolidin-3-yl]-4-(1H-indazol-1-yl)-N-methylbenzamide], the Ki in data set [1] fell in the range of 10.1 to 50 nM.

By melting point is commonly meant the temperature of the solid-liquid transition. As a reminder, the Ki is a dissociation constant, usually derived from enzyme kinetics or from competition with a known ligand.
